Data from US6933308B2 (Bristol-Myers Squibb Company, priority 2002, dated 2005).

Tests used:
KCNQ channels = test: Thallium flux assay for KCNQ channel openers; assay type: cell-based; conditions: HEK-293 cells stably transfected with a KCNQ family member; for Min conc. response: minimal active concentration: lowest concentration giving signal >= 4 SD of negative controls; for EC50: thallium flux, 10 point concentration series
Experimental: Thallium Flux Assay for KCNQ Channel Openers.
The thallium assay is a modification of that published by Weaver and is referenced in its entirety (Weaver, C. D. WO 02/31508, 2002).
Approximately 20,000 cells/well of an HEK-293 cell line stably transfected with one of the members of the KCNQ family were plated into clear-bottom, black-walled, poly-D-lysine coated, 384 well assay plates in 20 μl/well of low chloride plating medium. Low chloride plating medium was composed of the following: sodium gluconate, 109 mM; potassium gluconate, 5.4 mM; hemi-calcium gluconate, 3.6 mM; magnesium sulfate, 0.8 mM; sodium bicarbonate, 26.2 mM; sodium phosphate monobasic, 1.2 mM; glutamine, 2 mM; glucose, 5 mM; 4-(2-hydroxyethyl)-1-piperazineethanesulfonic acid (HEPES) (pH 7.3) 10 mM, MEM vitamin solution (10× concentration of vitamins, Gibco/LifeTechnologies 11120-052) and MEM amino acid solution (1× concentration of amino acids, Gibco/LifeTechnologies 11130-051).
Following overnight incubation in a 5% CO2 incubator at 37° C., the cells in the plates were loaded with 20 μl/well of a dye loading solution containing the commercially available thallium-sensitive fluorescent dye BTC-AM, the acetomethoxy ester of BTC (see U.S. Pat. No. 5,501,980) (2 μM) and pluronic acid F-127 (Molecular Probes P 6867) (0.02% w/v) in chloride free assay buffer. Chloride free assay buffer was composed of the following: sodium gluconate, 140 mM; potassium gluconate, 2.5 mM; hemi-calcium gluconate, 6 mM; hemi-magnesium gluconate, 2 mM; glucose, 5 mM; HEPES (pH 7.3), 10 mM.
Following incubation in the dye loading solution for from 45-90 min at room temperature, the dye loading solution was removed by aspiration and replaced with 40 μl/well of chloride free assay buffer.
Prior to addition to cell plates, test compound and standard compounds were dissolved in DMSO to 3 mM concentration. Compounds were then diluted from the 3 mM stock to 100-fold over the final assay concentration in DMSO. Finally, compounds in DMSO were diluted from 100-fold over the final assay concentration to 5-fold over the final assay concentration in chloride free assay buffer.
Ten μl/well of compounds at 5-fold over the final assay concentration were then added to the cell plates. This represents a 1:5 dilution, yielding the final test concentration. The wells used for test compounds were A1-P20. Wells A21-P22 contained a standard opener and a maximally efficacious concentration (positive control). Wells A23-P24 contained chloride free assay buffer containing 1% DMSO (negative control).
Following addition of test compounds, the plates were loaded onto the Molecular Devices FLIPR. The 488 nm line of the argon laser was used to excite the BTC and the emission filter was a 540(+/−30) nm. Images were collected at 1 Hz. Ten seconds of baseline were collected and then the FLIPR was used to add 13 μl/well of a stimulus buffer composed of 7.5 mM Tl2SO4 in chloride free assay buffer. Images were collected for an additional 60 seconds.
For data analysis, the amplitude of the average of the negative controls was subtracted from all wells. The amplitudes of the test compounds were then compared to the value of four standard deviations of the negative control wells. The lowest concentration of a test compound sufficient to generate a signal amplitude greater than or equal to four standard deviations from the amplitude of the negative controls was defined as the minimal active concentration.
For generating EC50 values, compounds were serially diluted in 1:3 volume increments to produce a 10 point concentration series. EC50 values were calculated by fitting the resulting amplitudes to a single-site logistic equation. EC50 was defined as the concentration of test compound required to yield 50% of the maximal response. Maximal response (Maximal opening) was the largest signal amplitude divided by the negative control amplitude generated by any concentration of a test compound. […]

mKCNQ2 channels = molecular target: T1, mKCNQ2 channels (Mus musculus, UniProt Q9Z351); test: KCNQ whole-cell patch-clamp; assay type: cell-based; conditions: for verified in a patch-clamp assay measuring the effect of compounds on the current of KCNQ channels: HEK 293 cells expressing mKCNQ2; for EC50: HEK 293 stable cell line expressing mKCNQ2, steady-state current at end of 600 ms step from holding potential -80 mV
T1 construct: expressed in transfected cells
Experimental: Examples 8 and 11 were verified in a patch-clamp assay measuring the effect of compounds on the current of KCNQ channels.
KCNQ Patch-clamp. Whole-cell patch-clamp recordings were made from an HEK 293 stable cell line expressing mKCNQ2 channels, maintained in culture for 1-2 days. Patch pipettes had initial resistances of 2.5-4 MΩ. Currents were recorded with an EPC-9 amplifier (HEKA, Lambrecht, Germany) controlled with software (Pulse, HEKA) run on a standard lab PC. Series resistance compensation was used during current recording, and set at 80%. The series resistance (R) and cell capacitance (C) were determined electronically by subtracting the capacitive currents at the onset and offset of a 5 mV voltage step. The cancellation of whole-cell capacitive transients was virtually complete in all cells. Analog current signals were low-pass filtered at 2.9 kHz using a four-pole Bessel filter −3 dB) and stored on a local network server computer at a sampling rate of 1.5 kHz. All recordings were performed at room temperature (20-22° C.). The pipette solution contained (mM):KCl, 150; CaCl2, 2.5; EGTA, 5; MgCl2, 1; HEPES, 10; pH to 7.3 with KOH, and Osmolality of 290-300 mOsm. The extracellular solution contained (mM): NaCl, 140; KCl, 2.5; CaCl2, 2.5; MgCl2, 1; glucose, 10; HEPES, 10; pH to 7.3 with NaOH, and Osmolality of […].
Concentration response data were generated by measuring the difference in the steady-state amplitude of current in the presence of compound at the end of a 600 ms voltage-clamp step from a holding potential of −80 mV. The concentration-response data were fitted with Hill-type equations: I=Imax/(1+EC50/[A]^nH), where I is the steady-state current at a given concentration of agonist [A]; and Imax, EC50 and nH are parameters estimated from the curve fit. In some cases the concentration-response data were fitted with equations consisting of the sum of two Hill-type components. Current-voltage (I/V) relationships for agonist-evoked currents were obtained by performing 600 ms voltage steps (−110 mV to +40 mV) in the absence and presence of agonist.

Structure (SMILES)	Min conc. response (KCNQ channels)	EC50 (KCNQ channels)	verified in a patch-clamp assay measuring the effect of compounds on the current of KCNQ channels (mKCNQ2 channels)	EC50 (mKCNQ2 channels)
CC(NC(=O)c1sc(CCN2CCOCC2)nc1C(F)(F)F)c1cccc(-c2cccnc2)c1 (stereo not drawn) [Example 8]	10 µM	1000 to 20000 nM	verified	
CCN(CC)CCc1nc(C(F)(F)F)c(C(=O)NC(C)c2cccc(OC(F)(F)F)c2)s1 (stereo not drawn) [Example 15]	0.3 µM	50 to 1000 nM		3560 nM
CC(NC(=O)c1sc(CCN2CCCC2)nc1C(F)(F)F)c1cccc(C(F)(F)F)c1 (stereo not drawn) [Example 10, 2-[2-(1-pyrrolidinyl)ethyl]-4-(trifluoromethyl)-N-[1-[3-(trifluoromethyl)phenyl]ethyl]-5-thiazolecarboxamide]	30 µM	1000 to 20000 nM		
C[C@H](NC(=O)c1sc(CCN(C)Cc2ccco2)nc1C(F)(F)F)c1cccc(N2CCOCC2)c1 [Example 11, 2-[2-[(2-furanylmethyl)methylamino]ethyl]-N-[1-[3-(4-morpholinyl)phenyl]ethyl]-4-(trifluoromethyl)-5-thiazolecarboxamide]	30 µM	1000 to 20000 nM	verified	
CC(NC(=O)c1sc(CCN2CCSCC2)nc1C(F)(F)F)c1cccc(C(F)(F)F)c1 (stereo not drawn) [Example 18, 2-[2-(4-thiomorpholinyl)ethyl]-4-(trifluoromethyl)-N-[1-[3-(trifluoromethyl)phenyl]ethyl]-5-thiazolecarboxamide]	3 µM	50 to 1000 nM		1230 nM
C[C@H](NC(=O)c1sc(C(O)CN2CCN(C)CC2)nc1C(F)(F)F)c1cccc(N2CCOCC2)c1 (stereo partly drawn) [Example 54, 2-[1-hydroxy-2-(4-methyl-1-piperazinyl)ethyl]-N-[(1S)-1-[3-(4-morpholinyl)phenyl]ethyl]-4-(trifluoromethyl)-5-thiazolecarboxamide]	0.3 µM			
